Key:
[1] = tested on: human epithelial HeLa cells; experiment: HeLa cytotoxicity assay (CellTiter-Glo); format: cell-based; details: pCC50
Procedure: (§1) Compounds of the present invention were tested via high-throughput cellular assays utilizing detection of kynurenine via mass spectrometry and cytotoxicity as end-points. For the mass spectrometry and cytotoxicity assays, human epithelial HeLa cells (CCL-2; ATCC®, Manassas, Va.) were stimulated with human interferon-γ (IFN-γ) (Sigma-Aldrich Corporation, St. Louis, Mo.) to induce the expression of indoleamine 2, 3-dioxygenase (IDO1). Compounds with IDO1 inhibitory properties decreased the amount of kynurenine produced by the cells via the tryptophan catabolic pathway. Cellular toxicity due to the effect of compound treatment was measured using CellTiter-Glo® reagent (CTG) (Promega Corporation, Madison, Wis.), which is based on luminescent detection of ATP, an indicator of metabolically active cells.
(§2) In preparation for the assays, test compounds were serially diluted 3-fold in DMSO from a typical top concentration of 1 mM or 5 mM and plated at 0.5 μL in 384-well, polystyrene, clear bottom, tissue culture treated plates with lids (Greiner Bio-One, Kremsmünster, Austria) to generate 11-point dose response curves. Low control wells (0% kynurenine or 100% cytotoxicity) contained either 0.5 μL of DMSO in the presence of unstimulated (−IFN-γ) HeLa cells for the mass spectrometry assay or 0.5 μL of DMSO in the absence of cells for the cytotoxicity assay, and high control wells (100% kynurenine or 0% cytotoxicity) contained 0.5 μL of DMSO in the presence of stimulated (+IFN-γ) HeLa cells for both the mass spectrometry and cytotoxicity assays.
(§3) Frozen stocks of HeLa cells were washed and recovered in DMEM high glucose medium with HEPES (Thermo Fisher Scientific, Inc., Waltham, Mass.) supplemented with 10% v/v certified fetal bovine serum (FBS) (Thermo Fisher Scientific, Inc., Waltham, Mass.), and 1× penicillin-streptomycin antibiotic solution (Thermo Fisher Scientific, Inc., Waltham, Mass.). The cells were diluted to 100,000 cells/mL in the supplemented DMEM medium. 50 μL of either the cell suspension, for the mass spectrometry assay, or medium alone, for the cytotoxicity assay, were added to the low control wells, on the previously prepared 384-well compound plates, resulting in 5,000 cells/well or 0 cells/well respectively. IFN-γ was added to the remaining cell suspension at a final concentration of 10 nM, and 50 μL of the stimulated cells were added to all remaining wells on the 384-well compound plates. The plates, with lids, were then placed in a 37° C., 5% CO2 humidified incubator for 2 days.
(§4) Following incubation, the 384-well plates were removed from the incubator and allowed to equilibrate to room temperature for 30 minutes. For the cytotoxicity assay, CellTiter-Glo® was prepared according to the manufacturer's instructions, and 10 μL were added to each plate well. After a twenty minute incubation at room temperature, luminescence was read on an EnVision® Multilabel Reader (PerkinElmer Inc., Waltham, Mass.). For the mass spectrometry assay, 10 μL of supernatant from each well of the compound-treated plates were added to 40 μL of acetonitrile, containing 10 μM of an internal standard for normalization, in 384-well, polypropylene, V-bottom plates (Greiner Bio-One, Kremsmünster, Austria) to extract the organic analytes. Following centrifugation at 2000 rpm for 10 minutes, 10 μL from each well of the acetonitrile extraction plates were added to 90 μL of sterile, distilled H2O in 384-well, polypropylene, V-bottom plates for analysis of kynurenine and the internal standard on the RapidFire 300 (Agilent Technologies, Santa Clara, Calif.) and 4000 QTRAP MS (SCIEX, Framingham, Mass.). MS data were integrated using Agilent Technologies' RapidFire Integrator software, and data were normalized for analysis as a ratio of kynurenine to the internal standard. […]

[2] = biological target: indoleamine 2, 3-dioxygenase (IDO1) (Homo sapiens, UniProt P14902); experiment: IDO1 HeLa RapidFire MS assay (kynurenine detection by mass spectrometry); format: cell-based; set-up: to induce the expression of indoleamine 2, 3-dioxygenase (IDO1); details: HeLa cells, pIC50, read-out: IDO1_HELA_PXC50 (converted)
indoleamine 2, 3-dioxygenase (IDO1), sequence (P14902 whole entry): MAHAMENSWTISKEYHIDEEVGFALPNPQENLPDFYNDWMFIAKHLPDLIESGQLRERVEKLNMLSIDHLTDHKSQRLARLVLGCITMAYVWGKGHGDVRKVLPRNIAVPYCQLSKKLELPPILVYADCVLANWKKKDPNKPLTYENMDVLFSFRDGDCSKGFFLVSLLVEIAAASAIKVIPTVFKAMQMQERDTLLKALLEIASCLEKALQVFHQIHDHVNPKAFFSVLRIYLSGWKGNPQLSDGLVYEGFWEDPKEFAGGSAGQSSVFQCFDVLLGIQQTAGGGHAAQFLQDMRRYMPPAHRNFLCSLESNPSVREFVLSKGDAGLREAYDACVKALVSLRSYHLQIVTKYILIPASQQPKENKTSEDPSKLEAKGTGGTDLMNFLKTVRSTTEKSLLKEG
Procedure: IDO1 HeLa RapidFire MS Assay
as §1, §2, §3, §4

| IC50 [2] [nM] | SMILES | HELA_IDO1_TOX_PXC50 [1] |
| --- | --- | --- |
| 12600 | CC(C)CN(CC(C)C)c1ccc(C(C)CC(=O)O)cc1Nc1c(Nc2ccccc2)c(=O)c1=O (stereo not drawn) [example 124, 3-{4-[bis(2-methylpropyl)amino]-3-{(3,4-dioxo-2-(phenylamino)cyclobut-1-en-1-yl]amino}phenyl}butanoic acid] | <4.3 |
| 200 | COCc1ncc(Nc2cc(C(C)CC(=O)O)ccc2N(CC(C)C)CC(C)C)s1 (stereo not drawn) [example 189, 3-{4-[bis(2-methylpropyl)amino]-3-{[2-(methoxymethyl)-1,3-thiazol-5-yl]amino}phenyl}butanoic acid] | <5 |
| 2510 | COc1ccnc(Nc2cc(C(C)CC(=O)O)ccc2N(CC(C)C)CC(C)C)n1.O=C(O)C(F)(F)F (stereo not drawn) [example 127, 3-{4-[bis(2-methylpropyl)amino]-3-[(4-methoxypyrimidin-2-yl)amino]phenyl}butanoic acid] | <4.3 |
| 6310 | CC(=O)Nc1ccc(Nc2cc(C(C)CC(=O)O)ccc2N(CC(C)C)CC(C)C)nc1 (stereo not drawn) [example 199, 3-{4-[bis(2-methylpropyl)amino]-3-[(5-acetamidopyridin-2-yl)amino]phenyl}butanoic acid] | <5 |
| 5010 | CC(C)CN(c1ccc(-c2c[nH]nc2C(=O)O)cc1Nc1nc2ccccc2o1)C1CCCCC1 [example 175, 4-{3-[(1,3-benzoxazol-2-yl)amino]-4-[cyclohexyl(2-methylpropyl)amino]phenyl}-1H-pyrazole-3-carboxylic acid] | <5 |
| 1580 | CC(C)CN(c1ccc([C@H](C)CC(=O)O)cc1NC(C)CCO)C1CCCCC1 (stereo partly drawn) [example 185, (3R)-3-{4-[cyclohexyl(2-methylpropyl)amino]-3-[(4-hydroxybutan-2-yl)amino]phenyl}butanoic acid] | <5 |
| > 10000 | CC(C)CN(CC(C)C)c1ccc(C(C)CC(=O)O)cc1Nc1ccc(NS(C)(=O)=O)cn1 (stereo not drawn) [example 200, 3-{4-[bis(2-methylpropyl)amino]-3-[(5-methanesulfonamido-pyridin-2-yl)amino]phenyl}butanoic acid] | <5 |
| 3160 | CC(C)CN(c1ccc(C(C)CC(=O)O)cc1NC1CCNC1)C1CCCCC1 (stereo not drawn) [example 136, 3-{4-[cyclohexyl(2-methylpropyl)amino]-3-[(pyrrolidin-3-yl)amino]phenyl}butanoic acid] | 5.1 |
| 100 | COCc1ccc(Nc2cc(C(C)CC(=O)O)ccc2N(CC(C)C)CC(C)C)nc1 (stereo not drawn) [example 193, 3-{4-[bis(2-methylpropyl)amino]-3-{[5-(methoxymethyl)pyridin-2-yl]amino}phenyl}butanoic acid] | <5 |
| 5010 | CC(C)CN(CC(C)C)c1ccc(C(C)CC(=O)O)cc1Nc1nnc(NS(C)(=O)=O)s1 (stereo not drawn) [example 192, 3-{4-[bis(2-methylpropyl)amino]-3-[(5-methanesulfonamido-1,3,4-thiadiazol-2-yl)amino]phenyl}butanoic acid] | <5 |
| 1580 | CC(C)CN(c1ccc(-c2cccnc2C(=O)O)cc1Nc1nc(Cl)ns1)C1CCOCC1 [example 270, 3-{3-[(3-chloro-1,2,4-thiadiazol-5-yl)amino]-4-[(2-methylpropyl)(oxan-4-yl)amino]phenyl}pyridine-2-carboxylic acid] | <5 |
| 316 | CC(C)CN(CC(C)C)c1ccc(C(C)CC(=O)O)cc1Nc1ccsc1 (stereo not drawn) [example 143, 3-{4-[bis(2-methylpropyl)amino]-3-[(thiophen-3-yl)amino]phenyl}butanoic acid] | <5 |
| 2000 | COCc1ncc(Nc2cc(C(C)CC(=O)O)ccc2N(CC(C)C)CC(C)C)o1 (stereo not drawn) [example 191, 3-{4-[bis(2-methylpropyl)amino]-3-{[2-(methoxymethyl)-1,3-oxazol-5-yl]amino]phenyl}butanoic acid] | <5 |
| 79.4 | COCc1nnc(Nc2cc([C@H](C)CC(=O)O)ccc2N(CC(C)C)CC(C)C)[nH]1 [example 190, (3R)-3-{4-[bis(2-methylpropyl)amino]-3-{[5-(methoxymethyl)-4H-1,2,4-triazol-3-yl]amino}phenyl}butanoic acid] | <5 |
| 79.4 | Cc1nnc(Nc2cc([C@H](C)CC(=O)O)ccc2N(CC(C)C)CC(C)C)s1 [example 186, (3R)-3-{4-[bis(2-methylpropyl)amino]-3-[(5-methyl-1,3,4-thiadiazol-2-yl)amino]phenyl}butanoic acid] | <5 |
| > 10000 | CC(C)CN(CC(C)C)c1ccc(C(C)CC(=O)O)cc1NC1CCC(C(=O)O)CC1 (stereo not drawn) [example 198, 4-({2-[bis(2-methylpropyl)amino]-5-(1-carboxypropan-2-yl)phenyl}amino)cyclo-hexane-1-carboxylic acid] | <5 |
| 631 | CC(C)CN(c1ccc(-c2ccccc2C(=O)O)cc1Nc1nc2ccccc2[nH]1)C1CCOCC1 [example 296, 3′-[(1H-1,3-benzodiazol-2-yl)amino]-4′-[(2-methylpropyl)(oxan-4-yl)amino]-[1,1′-biphenyl]-2-carboxylic acid] | <5 |
| 794 | CC(C)CN(c1ccc(C(C)CC(=O)O)cc1Nc1nc2ccccn2n1)C1CCCCC1 (stereo not drawn) [example 145, 3-{4-[cyclohexyl(2-methylpropyl)amino]-3-({[1,2,4]triazolo[1,5-a]pyridin-2-yl)amino)phenyl}butanoic acid] | <5 |
| 5010 | CC(C)CN(CC(C)C)c1ccc(C(C)CC(=O)O)cc1Nc1nc(C2CCOCC2)cs1 (stereo not drawn) [example 138, 3-{4-[bis(2-methylpropyl)amino]-3-{[4-(oxan-4-yl)-1,3-thiazol-2-yl]amino}phenyl}butanoic acid] | <4.3 |
| 3160 | CC(C)CN(c1ccc(-c2cn(C)nc2C(=O)O)cc1Nc1nc2ccccc2o1)C1CCCCC1 [example 176, 4-{3-[(1,3-benzoxazol-2-yl)amino]-4-[cyclohexyl(2-methylpropyl)amino]phenyl}-1-methyl-1H-pyrazole-3-carboxylic acid] | <5 |
| > 10000 | CC(=O)Nc1nnc(Nc2cc(C(C)CC(=O)O)ccc2N(CC(C)C)CC(C)C)s1 (stereo not drawn) [example 187, 3-{4-[bis(2-methylpropyl)amino]-3-[(5-acetamido-1,3,4-thiadiazol-2-yl)amino]phenyl}butanoic acid] | <5 |
| > 10000 | CC(C)CN(c1ccc(C(C)CC(=O)O)cc1Nc1nc(Cl)ns1)C1COC1 (stereo not drawn) [example 205, 3-{3-[(3-chloro-1,2,4-thiadiazol-5-yl)amino]-4-[{2-methylpropyl)(oxetan-3-yl)amino]phenyl}butanoic acid] | <5 |
| 158 | CC(C)CN(CC(C)C)c1ccc(C(C)CC(=O)O)cc1Nc1nncs1 (stereo not drawn) [example 196, 3-{4-[bis(2-methylpropyl)amino]-3-[(1,3,4-thiadiazol-2-yl)amino]phenyl}butanoic acid] | <5 |
| 50.1 | CC(C)CN(c1ccc(-c2ccccc2C(=O)NS(C)(=O)=O)cc1Nc1nc(C(F)(F)F)ns1)C1CCCCC1 [example 282, 4′-[cyclohexyl(2-methylpropyl)amino]-N-methanesulfonyl-3-′ {[3-(trifluoromethyl)-1,2,4-thiadiazol-5-yl]amino}-[1,1′-biphenyl]-2-carboxamide] | <5 |

Reference: patent US10899754B2, “Modulators of indoleamine 2,3-dioxygenase” (GLAXOSMITHKLINE INTELLECTUAL PROPERTY DEVELOPMENT LIMITED, priority 2016, dated 2021)
